For this assay, the target named is T1, Protein-glutamine gamma-glutamyltransferase (Cavia porcellus, UniProt Q7M0F8).
T1 sequence (Q7M0F8 whole entry): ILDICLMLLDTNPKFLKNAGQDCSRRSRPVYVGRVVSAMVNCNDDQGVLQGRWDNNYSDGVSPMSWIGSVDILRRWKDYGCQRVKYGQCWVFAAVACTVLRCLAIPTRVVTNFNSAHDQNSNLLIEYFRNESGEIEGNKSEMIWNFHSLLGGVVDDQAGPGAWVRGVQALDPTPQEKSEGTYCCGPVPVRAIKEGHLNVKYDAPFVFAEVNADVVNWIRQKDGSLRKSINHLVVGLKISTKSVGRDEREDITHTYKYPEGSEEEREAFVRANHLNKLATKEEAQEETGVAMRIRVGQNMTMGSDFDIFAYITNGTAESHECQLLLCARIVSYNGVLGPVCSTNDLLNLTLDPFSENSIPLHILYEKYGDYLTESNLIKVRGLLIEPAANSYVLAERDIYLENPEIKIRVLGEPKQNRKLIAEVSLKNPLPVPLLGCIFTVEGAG
The assay can be described thus: Inhibition of guinea pig liver transglutaminase.
Broadly, the IC50 is the concentration at which inhibition is half-maximal. A higher IC50 goes with lower potency. Regarding `CC(C)N(CCO)CCC(=O)c1cccnc1`, the IC50 is 7400 nM.

`CC(C)(C)N(CCC(=O)c1cc2ccccc2s1)Cc1ccccc1`: the IC50 amounted to 210 nM. For `O=C(CCN(CCO)CCO)c1ccncc1` the value was 3500 nM.

Compound `CN(CCO)CCC(=O)c1cccnc1` showed an IC50 of 5200 nM.

In turn, `CN(CCO)CCC(=O)c1cnccn1` displayed a half-maximal inhibitory concentration (IC50) of 9900 nM. The same measure for `CCN(CCC(=O)c1cnccn1)Cc1ccccc1`: 670 nM; for `O=C(CCN(CCO)Cc1ccccc1)c1ccc(Cl)s1`: 1500 nM; for `CC(C)N(CCO)CCC(=O)c1ccc2ccccc2c1`: 16000 nM. For `CC(C)(C)N(CCC(=O)c1ccco1)Cc1ccccc1` the value was 650 nM; for `CCc1nccnc1C(=O)CCN(CCO)Cc1ccccc1`, 18000 nM. With `CCc1nccnc1C(=O)CCN(Cc1ccccc1)C(C)(C)C`, the half-inhibitory concentration (IC50) turned out to be 1700 nM.

The compound `CCN(CCC(=O)c1ccsc1)Cc1ccccc1` showed a 50% inhibitory concentration (IC50) of 12000 nM.

Compound `CCN(CCC(=O)c1cccs1)Cc1ccccc1` had an IC50 of 2100 nM.

Turning to `CN(CCC(=O)c1cccnc1)Cc1ccccc1`, 4000 nM corresponded to half-maximal inhibition (IC50). Consider `CC(C)(C)N(CCC(=O)c1ccccn1)Cc1ccccc1`, for which the concentration for half-maximal inhibition (IC50) is 1000 nM. For `CC(C)N(CCC(=O)c1cc2ccccc2s1)Cc1ccccc1` the value was 770 nM; for `CC(C)N(CCO)CCC(=O)c1cc2ccccc2s1`, 9400 nM. Compound `CC(C)N(CCO)CCC(=O)c1nccs1` registered an IC50 of 16000 nM. The same measure for `CC(C)N(CCC(=O)c1ccccc1)Cc1ccccc1`: 5600 nM; for `CC(C)(C)N(CCO)CCC(=O)c1cccnc1`: 7800 nM; for `CCCCN(CCO)CCC(=O)c1cccs1`: 19000 nM. The same measure for `CN(CCC(=O)c1ccc(Cl)s1)Cc1ccccc1`: 1000 nM; for `CCCCN(CCO)CCC(=O)c1ccc(Oc2ccccc2)cc1`: 7400 nM. The same measure for `CC(C)(C)N(CCC(=O)c1nccs1)Cc1ccccc1`: 1400 nM. The compound `CCN(CCC(=O)c1ccc(F)cc1)Cc1ccccc1` came in with an IC50 of 13000 nM.

On to `Cc1ccc(C(=O)CCN(CCO)C(C)C)o1`, for which the IC50 was determined as 420 nM. The same measure for `O=C(CCN(CCO)CCO)c1ccsc1`: 13000 nM; for `CC(C)N(CCC(=O)c1ccc(F)cc1)Cc1ccccc1`: 10000 nM. The same measure for `CC(C)(C)N(CCO)CCC(=O)c1cccs1`: 6800 nM. For the compound `CCCCN(CCO)CCC(=O)c1ccco1`, the 50% inhibitory concentration (IC50) was found to be 840 nM. In turn, `O=C(CCN(CCO)CCO)c1ccc2ccccc2c1` showed an IC50 of 22000 nM.

With `CC(C)N(CCC(=O)c1ccc2ccccc2c1)Cc1ccccc1`, the half-maximal inhibitory concentration (IC50) is 4000 nM. For the compound `CC(C)(C)N(CCC(=O)c1ccc(C#N)cc1)Cc1ccccc1`, 1700 nM corresponded to half-maximal inhibition (IC50). The same measure for `CC(C)N(CCO)CCC(=O)c1ccc(Cl)cc1`: 2200 nM; for `CCCCN(CCO)CCC(=O)c1ccc(C)o1`: 800 nM; for `CN(CCO)CCC(=O)c1ccncc1`: 7900 nM. `CC(C)N(CCC(=O)c1ccc2c(Cl)cccc2c1)Cc1ccccc1`: inhibition was half-maximal at 1700 nM (IC50).

The compound `Cc1ccc(C(=O)CCN(C)Cc2ccccc2)o1` yielded an IC50 of 4300 nM. For `CC(C)(C)N(CCO)CCC(=O)c1nccs1` the value was 10000 nM; for `CCCCN(CCO)CCC(=O)c1cnccn1`, 1700 nM; for `CN(CCC(=O)c1ccc2ccccc2c1)Cc1ccccc1`, 21000 nM.

`CN(CCO)CCC(=O)c1ccco1` displayed a concentration for half-maximal inhibition (IC50) of 1200 nM. The same measure for `CCN(CCC(=O)c1nccs1)Cc1ccccc1`: 2600 nM.

The compound `Cc1ccc(C(=O)CCN(CCO)Cc2ccccc2)o1` displayed an IC50 of 6600 nM. The same measure for `CC(C)N(CCC(=O)c1cnccn1)Cc1ccccc1`: 530 nM; for `CC(C)N(CCC(=O)c1ccc(Cl)s1)Cc1ccccc1`: 230 nM; for `CC(C)N(CCC(=O)c1ccco1)Cc1ccccc1`: 320 nM.

On to `CN(CCC(=O)c1ccco1)Cc1ccccc1`, for which the midpoint of inhibition, the IC50, lay at 1800 nM. For `CC(C)(C)N(CCC(=O)c1ccc(Br)s1)Cc1ccccc1` the value was 81 nM; for `CCCCN(CCO)CCC(=O)c1ccsc1`, 12000 nM; for `CC(C)(C)N(CCC(=O)c1ccc(Cc2ccccc2)cc1)Cc1ccccc1`, 3600 nM. The same measure for `O=C(CCN(CCO)Cc1ccccc1)c1csc(Cl)c1`: 2700 nM. The same measure for `CCCCN(CCO)CCC(=O)c1ccc2c(Cl)cccc2c1`: 1900 nM; for `CC(C)(C)N(CCC(=O)c1ccsc1)Cc1ccccc1`: 11000 nM; for `O=C(CCN(CCO)Cc1ccccc1)c1ccco1`: 1300 nM. As for `O=C(CCN(CCO)Cc1ccccc1)c1cnccn1`, it took 1500 nM to reach half-maximal inhibition (IC50).

The compound `CN(CCO)CCC(=O)c1ccccn1` registered a 50% inhibitory concentration (IC50) greater than 30000 nM. For `CN(CCC(=O)c1ccc(Oc2ccccc2)cc1)Cc1ccccc1` the value was 18000 nM; for `CCc1nccnc1C(=O)CCN(CCO)C(C)C`, 7700 nM; for `Cc1ccc(C(=O)CCN(Cc2ccccc2)C(C)(C)C)o1`, 2300 nM. The compound `CC(C)N(CCC(=O)c1ccc(Cc2ccccc2)cc1)Cc1ccccc1` displayed an IC50 of 2600 nM. For `CC(C)N(CCO)CCC(=O)c1ccncc1`, the concentration for half-maximal inhibition (IC50) came out at 4800 nM.

In turn, `CC(C)(C)N(CCC(=O)c1ccc(Cl)cc1)Cc1ccccc1` came in with a 50% inhibitory concentration (IC50) of 700 nM. For `Cc1ccc(C(=O)CCN(Cc2ccccc2)C(C)C)o1` the value was 320 nM.

For `CCc1nccnc1C(=O)CCN(Cc1ccccc1)C(C)C`, half-maximal inhibition (IC50) was put at 920 nM. For `CC(C)(C)N(CCC(=O)c1ccc(Cl)s1)Cc1ccccc1` the value was 100 nM; for `O=C(CCN(CCO)Cc1ccccc1)c1ccncc1`, 2500 nM; for `O=C(CCN(CCO)Cc1ccccc1)c1nccs1`, 8500 nM. `CN(CCC(=O)c1cccs1)Cc1ccccc1` came in with an IC50 of 10000 nM. The same measure for `CC(C)N(CCO)CCC(=O)c1ccc(Cl)s1`: 5400 nM; for `CC(C)N(CCO)CCC(=O)c1ccsc1`: 11000 nM. For `CC(C)N(CCC(=O)c1ccncc1)Cc1ccccc1` the value was 830 nM.

For the compound `CCCCN(CCO)CCC(=O)c1ccccn1`, the IC50 stood at 10000 nM.

`CC(C)(C)N(CCC(=O)c1cccnc1)Cc1ccccc1` displayed a half-inhibitory concentration (IC50) of 470 nM.

`O=C(CCN(CCO)CCO)c1ccco1`: the IC50 was determined as 360 nM. The same measure for `CC(C)(C)N(CCO)CCC(=O)c1ccc(C#N)cc1`: 10000 nM; for `CN(CCO)CCC(=O)c1ccsc1`: 14000 nM.

Turning to `CC(C)N(CCC(=O)c1ccc(Br)s1)Cc1ccccc1`, inhibition was half-maximal at 190 nM (IC50). For `CC(C)N(CCC(=O)c1ccc(C#N)cc1)Cc1ccccc1` the value was 590 nM.

In turn, `CC(C)N(CCO)CCC(=O)c1ccc(F)cc1` registered a 50% inhibitory concentration (IC50) of 10000 nM. Take `CCN(CCC(=O)c1ccncc1)Cc1ccccc1`: 1400 nM corresponded to half-maximal inhibition (IC50).

As for `Cc1ccc(C(=O)CCN(CCO)CCO)o1`, half-maximal inhibition (IC50) was put at 6500 nM. For `CN(CCC(=O)c1ccc(Cc2ccccc2)cc1)Cc1ccccc1` the value was 26000 nM; for `O=C(CCN(CCO)Cc1ccccc1)c1ccccc1`, 11000 nM. The same measure for `O=C(CCN(CCO)CCO)c1cccs1`: 8300 nM; for `CCCCN(CCO)CCC(=O)c1ncc(C)s1`: 2300 nM. The same measure for `CN(CCC(=O)c1cnccn1)Cc1ccccc1`: 1200 nM. On to `CC(C)(C)N(CCO)CCC(=O)c1ccccn1`, for which 12000 nM corresponded to half-maximal inhibition (IC50). The same measure for `CC(C)(C)N(CCO)CCC(=O)c1cnccn1`: 2700 nM; for `CCN(CCC(=O)c1ccccn1)Cc1ccccc1`: 2700 nM.

`CC(C)(C)N(CCC(=O)c1cccs1)Cc1ccccc1`: it took 440 nM to reach half-maximal inhibition (IC50). The same measure for `Cc1ccc(C(=O)CCN(C)CCO)o1`: 1400 nM. As to `CC(C)(C)N(CCC(=O)c1ccc(F)cc1)Cc1ccccc1`, the concentration for half-maximal inhibition (IC50) turned out to be 1100 nM. The same measure for `O=C(CCN(CCO)Cc1ccccc1)c1ccncn1`: 4900 nM; for `CC(C)(C)N(CCO)CCC(=O)c1ccncc1`: 11000 nM. For `O=C(CCN(CCO)CCO)c1nccs1` the value was 6900 nM; for `CC(C)(C)N(CCC(=O)c1cnccn1)Cc1ccccc1`, 570 nM.

On to `CC(C)N(CCO)CCC(=O)c1ccco1`, for which 120 nM corresponded to half-maximal inhibition (IC50). The same measure for `CC(C)N(CCO)CCC(=O)c1ccccc1`: 10000 nM; for `CN(CCO)CCC(=O)c1cccs1`: 4000 nM. Turning to `CC(C)N(CCC(=O)c1cccnc1)Cc1ccccc1`, the IC50 was 830 nM.

Compound `O=C(CCN(CCO)Cc1ccccc1)c1cccs1` yielded a 50% inhibitory concentration (IC50) of 10000 nM.

In turn, `CC(C)N(CCC(=O)c1ccsc1)Cc1ccccc1` had an IC50 of 8600 nM. `CN(CCC(=O)c1ccncc1)Cc1ccccc1`: the half-inhibitory concentration (IC50) stood at 2000 nM. For the compound `Cc1cnc(C(=O)CCN(Cc2ccccc2)C(C)C)s1`, 850 nM corresponded to half-maximal inhibition (IC50).

Consider `CC(C)N(CCC(=O)c1nccs1)Cc1ccccc1`, for which half-maximal inhibition (IC50) was put at 3200 nM. The same measure for `O=C(CCN(CCO)CCO)c1cnccn1`: 1200 nM; for `CCCCN(CCO)CCC(=O)c1ccc(Br)s1`: 1400 nM; for `CC(C)N(CCC(=O)c1ccccn1)Cc1ccccc1`: 1100 nM. The same measure for `CN(CCO)CCC(=O)c1nccs1`: 4700 nM; for `CCCCN(CCO)CCC(=O)c1cccnc1`: 2700 nM. For `CC(C)(C)N(CCC(=O)c1ccncc1)Cc1ccccc1` the value was 1400 nM; for `O=C(CCN(CCO)Cc1ccccc1)c1ccsc1`, 12000 nM. Compound `O=C(CCN(CCO)CCO)c1ccccn1` came in with a concentration for half-maximal inhibition (IC50) of 5100 nM.

For `CN(CCC(=O)c1ccccn1)Cc1ccccc1`, half-maximal inhibition (IC50) required 17000 nM.

These data come from ChEMBL document CHEMBL1159104, “Potent transglutaminase inhibitors, aryl beta-aminoethyl ketones” (Bioorg Med Chem Lett, 2010).
